The values below come from patent US10807959B2, “WDR5-MLL1 inhibitors and modulators” (Vanderbilt University, priority 2018, dated 2020).

A value given as a limit tells only on which side of the number the result lay.

The first assay deals with T1, WDR5 (Homo sapiens (Human), UniProt P61964). The experiment in a line: Fluorescence polarization anisotropy (FPA) competition assay, displacement of FITC-MLL or 10mer-Thr-FAM peptide. It counts as binding. The note with it: Inhibition of WDR5 by FPA assay. An excerpt:
The assay is run in 384-well format and is read on a BioTek Cytation. […] Replicate values are fit to a 4-parameter fit in XLFit to generate a single IC50 value for each compound that is then converted to a Ki value. Experiments are repeated to generate a 2nd, independent Ki value; values from the two experiments are averaged to produce the reported Ki value for the compound.
A general note: Fluorescence polarisation rises when a labelled molecule tumbles more slowly, as on binding a larger partner.
`O=C(NCc1ccc(Cl)c(Cl)c1)c1cc(Cn2ccnc2C(F)(F)F)cc(-c2ccc(F)cc2Cl)c1` [Example 135, 2′-Chloro-N-(3,4-dichlorobenzyl)-4′-fluoro-5-((2-(trifluoromethyl)-1H-imidazol-1-yl)methyl)-[1,1′-biphenyl]-3-carboxamide] registered a Ki above 10000 nM.

In turn, `COc1cc(CNC(=O)c2cc(Cn3ccnc3)cc(-c3ccoc3C)c2)cc(OC)c1` [Example 130, 3-((1H-Imidazol-1-yl)methyl)-N-(3,5-dimethoxybenzyl)-5-(2-methylfuran-3-yl)benzamide] returned a Ki of 2.1 nM. This counts as single-digit nanomolar.

In turn, `CC(C)(NC(=O)c1cc(Cn2ccnc2)cc(-c2ccc(F)cc2Cl)n1)C1CC1` [Example 149, 4-((1H-imidazol-1-yl)methyl)-6-(2-chloro-4-fluorophenyl)-N-(2-cyclopropylpropan-2-yl)picolinamide] had a Ki of 8.6 nM.

Compound `COc1cc(Cn2ccnc2)cc(C(=O)NCc2ccc(Cl)c(C)c2)c1` [Example 113, 3-((1H-Imidazol-1-yl)methyl)-N-(4-chloro-3-methylbenzyl)-5-methoxybenzamide] returned a Ki of 141 nM.

`Cc1ccncc1-c1cc(Cn2ccnc2)cc(C(=O)NCc2ccc(Cl)c(Cl)c2)c1` [Example 121, 3-((1H-imidazol-1-yl)methyl)-N-(3,4-dichlorobenzyl)-5-(4-methylpyridin-3-yl)benzamide] showed a Ki of 1.3 nM.

On to `COc1cncc(-c2cc(Cn3ccnc3)cc(C(=O)NCc3ccc(Cl)c(Cl)c3)c2)c1` [Example 128, 3-((1H-Imidazol-1-yl)methyl)-N-(3,4-dichlorobenzyl)-5-(5-methoxypyridin-3-yl)benzamide], for which the Ki amounted to 2.2 nM. Against the preceding compound, the Ki is about 1.7-fold higher.

In turn, `Cc1cc(CNC(=O)c2cc(Cn3ccnc3)cc(OC3CCCC3)c2)ccc1Cl` [Example 115, 3-((1H-Imidazol-1-yl)methyl)-N-(4-chloro-3-methylbenzyl)-5-(cyclopentyloxy)benzamide] yielded a Ki of 3.5 nM. This Ki lies about 1.6-fold higher than the previous one.

As to `O=C(NCc1ccc(Cl)c(Cl)c1)c1cc(Cn2ccnc2)cc(N2CCCC2)c1` [Example 136, 3-((1H-Imidazol-1-yl)methyl)-N-(3,4-dichlorobenzyl)-5-(pyrrolidin-1-yl)benzamide], the Ki is 6.5 nM.

`COc1cc(CNC(=O)c2cc(CNC3=NCCN3)cc(-c3ccc(F)cc3Cl)c2)cc(OC)c1` [Example 3, 2′-chloro-5-(((4,5-dihydro-1H-imidazol-2-yl)amino)methyl)-N-(3,5-dimethoxybenzyl)-4′-fluoro-[1,1′-biphenyl]-3-carboxamide] showed a Ki of 2.7 nM.

Still in this assay, the particulars now being: Table B2, WDR5 WIN-site binding affinity; values not less than 1 nM (FPA).
For the compound `Cc1cc(C)cc(CNC(=O)c2cc(CNC3=NCCN3)cc(-c3ccc(F)cc3Cl)c2)c1` [Example B55], the Ki stood at 1.27 nM.

For `COc1ccc(C(=O)NCc2ccc(Cl)cn2)cc1CNC1=NCCN1` [Example B44], the affinity corresponds to a Ki of 20.3 nM.

Take `COc1cc(OC)cc(C(C)NC(=O)c2ccc(OC(C)C)c(CNC3=NCCN3)c2)c1` (stereo not drawn) [Example B52, 3-(((4,5-dihydro-1H-imidazol-2-yl)amino)methyl)-N-(1-(3,5-dimethoxyphenyl)ethyl)-4-isopropoxybenzamide]: the Ki stood at 33 nM.

`COc1cc(CNC(=O)c2ccc(OC)c(CNC3=NCCN3)c2)ccc1Cl` [Example B38] registered a Ki of 24.5 nM.

Regarding `O=C(NCc1cc(Cl)cc(Cl)c1)c1ccc(F)c(CNC2=NCCN2)c1` [Example B17], the inhibition constant (Ki) is 2.47 nM.

In the case of `CC(NC(=O)c1cc(Cl)cc(CNC2=NCCN2)c1)c1cccc(Cl)c1` (stereo not drawn) [Example B12], the Ki worked out at 65.1 nM.

In turn, `Cc1ccncc1-c1cc(CNC2=NCCN2)cc(C(=O)NCc2cccc(F)n2)c1` [Example B89] returned a Ki of 4.39 nM.

On to `Cc1cc(C)nc(CNC(=O)c2ccc(F)c(CNC3=NCCN3)c2)n1` [Example B45], for which the Ki was 11.3 nM.

`COc1cc(OC)cc(C(C)NC(=O)c2cc(F)c(F)c(CNC3=NCCN3)c2)c1` (stereo not drawn) [Example B35] had a Ki of 4.22 nM.

`O=C(NCc1ccc(Cl)c(Cl)c1)c1cc(Cl)cc(CNC2=NCCN2)c1` [Example B8] registered a Ki of 10.7 nM. Against the preceding compound, the Ki is about 2.5-fold higher.

On to `Cc1cc(C)cc(CNC(=O)c2cc(F)c(F)c(CNC3=NCCN3)c2)c1` [Example B31], for which the affinity, expressed as Ki, was 8.11 nM.

The compound `CC(C)Oc1ccc(C(=O)NCc2ccc(Cl)c(Cl)c2)cc1CNC1=NCCN1` [Example B53] yielded a Ki of 40.9 nM.

Turning to `CCOc1ccc(C(=O)NC(C)c2cc(OC)cc(OC)c2)cc1CNC1=NCCN1` (stereo not drawn) [Example B51, 3-(((4,5-dihydro-1H-imidazol-2-yl)amino)methyl)-N-(1-(3,5-dimethoxyphenyl)ethyl)-4-ethoxybenzamides], the Ki is 9.77 nM. This Ki lies about 4.2-fold lower than the previous one.

The compound `Cc1ccnc(C(NC(=O)c2ccc(F)c(CNC3=NCCN3)c2)C2CC2)c1` (stereo not drawn) [Example B20] showed a Ki of 4.6 nM.

As to `Cc1ccnc(CNC(=O)c2ccc(F)c(CNC3=NCCN3)c2)c1` [Example B29], the inhibitory constant (Ki) worked out at 24.9 nM.

On to `Cc1cc(C)cc(CNC(=O)c2ccc(F)c(CNC3=NCCN3)c2)c1` [Example B7], for which the inhibition constant Ki came to 8.46 nM.

Regarding `COc1cc(OC)cc(C(C)NC(=O)c2cc(CNC3=NCCN3)c(F)cc2F)c1` (stereo not drawn) [Example B49], the Ki was found to be 1.06 nM.

`CCOc1ccc(C(=O)NC(c2cc(C)ccn2)C2CC2)cc1CNC1=NCCN1` (stereo not drawn) [Example B50] came in with a Ki of 12.4 nM.

`Cc1cnc(CNC(=O)c2ccc(F)c(CNC3=NCCN3)c2)cn1` [Example B46]: the Ki came to 3.96 nM.

In turn, `O=C(NCc1cc(Cl)cc(Cl)c1)c1cccc(CNC2=NCCN2)c1` [Example B1, N-(3,5-dichlorobenzyl)-3-(((4,5-dihydro-1H-imidazol-2-yl)amino)methyl)benzamide] came in with a Ki of 18 nM.

`O=C(NCc1cc(Cl)cc(Cl)c1)c1cc(Cl)cc(CNC2=NCCN2)c1` [Example B9] came in with a Ki of 17.4 nM. The Ki values of the last two compounds are within 1.5-fold of each other.

Staying with this assay, now noted: Table C2, WDR5 WIN-site binding affinity; values not less than 1 nM (FPA).
The compound `Cc1cnc(C(C)NC(=O)c2cc(CNC3=NCCC3)cc(-c3ccc(F)cc3C(F)(F)F)n2)cc1Cl` (stereo not drawn) [Example C32] returned a Ki of 1.54 nM.

In the next assay the target is T1, WDR5. Nature of the assay: TR-FRET binding assay, displacement of 10mer-Thr-FAM probe from His-tagged WDR5.
Conditions: not given
As to the method:
The LanthaScreenTM Elite Tb-anti-HIS Antibody from ThermoFisher Scientific was used for this purpose. […] The ratio of the 520 and 495 signals are then utilized to generate a dose-response curve to calculate an IC50 value. […] WDR[…] tag protein is used at 2 nM.
(Time-resolved FRET reads energy transfer from a long-lived donor to a nearby acceptor.)
The compound `COc1ccc(C(=O)NCc2ccc(Cl)c(Cl)c2)cc1CNC1=NCCN1` [Example B28] returned a Ki of 0.622 nM. This counts as sub-nanomolar.

Turning to `Cc1cc(-c2cc(CNC3=NCCN3)cc(C(=O)NCc3ccc(Cl)c(C)c3)c2)ccn1` [Example B84], the Ki is 0.118 nM.

With `COc1cc(CNC(=O)c2cc(CNC3=NCCN3)cc(-c3cc(C)cnc3F)c2)cc(OC)c1` [Example B109], the Ki is 0.0385 nM.

In turn, `COc1cc(CNC(=O)c2cc(CNC3=NCCN3)cc(-c3ccc(F)nc3C)c2)cc(OC)c1` [Example B63] returned a Ki of 0.131 nM.

For `COc1cc(CNC(=O)c2cc(CNC3=NCCN3)cc(-c3ccnc(C)c3)c2)cc(OC)c1` [Example B72], the Ki was determined as 0.634 nM.

Still in this assay, the particulars now being: Inhibition of WDR5 by TR-FRET assay.
On to `COc1ccnc(CNC(=O)c2cc(CNC3=NCCN3)cc(-c3cc(C)c(F)cc3OC)c2)c1` [Example 50, 5-(((4,5-Dihydro-1H-imidazol-2-yl)amino)methyl)-4′-fluoro-2′-methoxy-N-((4-methoxypyridin-2-yl)methyl)-5′-methyl-[1,1′-biphenyl]-3-carboxamide], for which the Ki is below 0.1 nM.

The compound `COc1cc(CNC(=O)c2cc(Cn3ccnc3)cc(-c3ccc(=O)[nH]c3)c2)cc(OC)c1` [Example 145, 3-((1H-Imidazol-1-yl)methyl)-N-(3,5-dimethoxybenzyl)-5-(6-oxo-1,6-dihydropyridin-3-yl)benzamide] displayed a Ki of 22 nM. That is a double-digit nanomolar value.

With `Cc1ncc(CNC(=O)c2cc(CNC3=NCCN3)cc(-c3ccc(F)nc3C)c2)cn1` [Example 37, 3-(((4,5-dihydro-1H-imidazol-2-yl)amino)methyl)-5-(6-fluoro-2-methylpyridin-3-yl)-N-((2-methylpyrimidin-5-yl)methyl)benzamide], the Ki was 2.1 nM. Against the preceding compound, the Ki is about 10-fold lower.

As for `Cc1nc(F)ccc1-c1cc(Cn2ccnc2C2CC2)cc(C(=O)NCc2ccc(Cl)c(Cl)c2)c1` [Example 139, 3-((2-Cyclopropyl-1H-imidazol-1-yl)methyl)-N-(3,4-dichlorobenzyl)-5-(6-fluoro-2-methylpyridin-3-yl)benzamide], the Ki amounted to 1.6 nM.

On to `COc1ccc(CNC(=O)c2cc(CNC3=NCCN3)cc(-c3ccc(F)nc3C)c2)cc1OC` [Example 4, 3-(((4,5-Dihydro-1H-imidazol-2-yl)amino)methyl)-N-(3,4-dimethoxybenzyl)-5-(6-fluoro-2-methylpyridin-3-yl)benzamide], for which the Ki is 0.36 nM. Compared with the last compound, the Ki is about 4.4-fold lower.

In turn, `COc1ccnc(CNC(=O)c2cc(CNC3=NCCN3)cc(-c3cc(C)c(F)cc3C)c2)c1` [Example 51, 5-(((4,5-Dihydro-1H-imidazol-2-yl)amino)methyl)-4′-fluoro-N-((4-methoxypyridin-2-yl)methyl)-2′,5′-dimethyl-[1,1′-biphenyl]-3-carboxamide] displayed a Ki below 0.1 nM.

For the compound `Cc1ccnc(C(NC(=O)c2cc(CNC3=NCCN3)cc(-c3cnccc3C)c2)C2CC2)c1` (stereo not drawn) [Example 25, N-(cyclopropyl(4-methylpyridin-2-yl)methyl)-3-(((4,5-dihydro-1H-imidazol-2-yl)amino)methyl)-5-(4-methylpyridin-3-yl)benzamide], the Ki is 0.2 nM.

`COc1cc(CNC(=O)c2cc(CNC3=NCCN3)cc(-c3cnc(F)c(C)c3)c2)cc(OC)c1` [Example 30, 3-(((4,5-Dihydro-1H-imidazol-2-yl)amino)methyl)-N-(3,5-dimethoxybenzyl)-5-(6-fluoro-5-methylpyridin-3-yl)benzamide] yielded a Ki of 0.33 nM.

Consider `COc1cc(CNC(=O)c2cc(CNC3=NCCC3)cc(-c3cc(C)c(F)cc3C)c2)cc(OC)c1` [Example 62, 5-(((3,4-Dihydro-2H-pyrrol-5-yl)amino)methyl)-N-(3,5-dimethoxybenzyl)-4′-fluoro-2′,5′-dimethyl-[1,1′-biphenyl]-3-carboxamide], for which the Ki was determined as 0.21 nM.

A word on the Ki: it is a measure of affinity in units of concentration, obtained from inhibition or displacement. The low end stands for higher affinity, the high end for lower affinity.
